Data published in US20080200532A1 (Teva Pharmaceuticals USA, Inc. for Barbados, priority 2003, published 2008).

Key:
[1] = according to the '340 patent; cited from earlier work
[2] = Stability study of Form XIV, polymorph content by X-Ray Powder Diffraction analysis; type: physicochemical
Description: [table] Powder X-ray diffraction data were obtained using methods known in the art on a […] powder X-ray diffractometer model X'TRA equipped with a solid state detector. Copper radiation of 1.5418 Å was used. A round aluminum sample holder with zero background was used.

[3] = Stability studies, appearance after storage; type: physicochemical; conditions: storage at 40 EC for three months

CC(C)n1c(/C=C/[C@@H](O)C[C@@H](O)CC(=O)O)c(-c2ccc(F)cc2)c2ccccc21 (racemic) [Form B, fluvastatin sodium]
Hygroscopicity [1]: low hygroscopicity

CC(C)n1c(/C=C/[C@@H](O)C[C@@H](O)CC(=O)O)c(-c2ccc(F)cc2)c2ccccc21 (relative stereo) [Form XIV, [R*,S*-(E)]-(±)-7-[3-(4-fluorophenyl)-1-(1-methylethyl)-1H-indol-2-yl]-3,5-dihydroxy-6-heptenoic acid monosodium]
Polymorph content by X-Ray Powder Diffraction analysis ([2]; 25° C., 60% RH, 1 M): XIV | Polymorph content by X-Ray Powder Diffraction analysis ([2]; 25° C., 60% RH, 2 M): XIV | Polymorph content by X-Ray Powder Diffraction analysis ([2]; 25° C., 60% RH, 3 M): XIV | Polymorph content by X-Ray Powder Diffraction analysis ([2]; 40° C., 75% RH, 1 M): XIV | Polymorph content by X-Ray Powder Diffraction analysis ([2]; 40° C., 75% RH, 2 M): XIV | Polymorph content by X-Ray Powder Diffraction analysis ([2]; 40° C., 75% RH, 3 M): XIV | Polymorph content by X-Ray Powder Diffraction analysis ([2]; 55° C., 1 M): XIV | Polymorph content by X-Ray Powder Diffraction analysis ([2]; 55° C., 2 M): XIV | Polymorph content by X-Ray Powder Diffraction analysis ([2]; 55° C., 3 M): XIV | Transformation into Form B upon storage ([2]; storage at 25, 40 and 55° C., for at least 3 months): no more than 5% | Polymorph content by X-Ray Powder Diffraction analysis ([2]; t = 0): XIV | Change of appearance (white to pale yellow powder) after storage [3]: does not change
